Tests used:
[1] = system: dry macular degeneration pig model; assay: Drug efficacy by fundoscopy; assay type: in vivo; details: IAA 10 mg/kg iv, 7 days after induction, FIG. 13
Method: First, to construct a dry macular degeneration pig model, 10 mg/kg of iodoacetic acid (IAA) was dissolved in PBS (phosphate buffered saline) and injected intravenously to a mini pig (Yutacan Micropig). One week after the IAA administration, retinal degeneration was confirmed by retinal fundus photography and fluorescence (Experimental eye research 2012. 97, 137-147), and a schematic diagram illustrating the eye drop instillation of the compounds is shown in FIG. 12.
The eye drop instillation of the compounds of the invention was performed from a day before the IAA administration as shown in FIG. 12. 7 days after the induction of retinal degeneration in the pig, retinal fundus photographs were taken and the results are shown in FIG. 13.

[2] = system: dry macular degeneration pig model; assay: Drug efficacy by ERG (electroretinography) 2; assay type: in vivo
Method: The experiment was performed by the same manner as described in Experimental Example 10 except that a dry macular degeneration pig model was used instead of the dry macular degeneration rabbit model.

[3] = Solubility in water of doxycycline forms; assay type: physicochemical; details: listed as HC
[4] = system: retinal degeneration rabbit model; assay: Drug efficacy by ERG (electroretinography) 1; assay type: in vivo; details: for response compared to normal (100%) / Drug efficacy (%): ERG
Method: The normal rabbit was anesthetized, which was adapted for 20 minutes in a dark room. Retinal potential difference was measured by ERG equipment. Electroretinography is a method to observe the response of photoreceptor cells with two light intensities. Particularly, A and B waves were measured from 100 to 10000 mcd, and the retinal potential difference measured at 3000 mcd. Drug efficacy was evaluated by observing the photoreceptor cells, for which the stronger response to wave A was selected.
Evaluation of candidate substances for dry macular degeneration was performed using a retinal degeneration rabbit model. The compounds of Comparative Examples 2 and 3 were used as comparative compounds. […] The compound of Comparative Example 3 was orally administered once a day (10 mg/rabbit, dissolved in saline).

Q: With `C[C@H]1c2cccc(O)c2C(=O)C2=C(O)[C@]3(O)C(=O)C(C(N)=O)=C(O)[C@@H](N(C)C)[C@@H]3[C@@H](O)[C@@H]21` [Comparative Example3-HC, doxycycline] as the compound, how does the retinal fundus photographs [1] read?
A: The retinal fundus photographs was “damaged areas (*) were observed”.

Q: What about the “wave A response” value ([2]; ERG, FIG. 14 and 15) of the same compound?
A: Its value is “wave A response was reduced”.

Q: What about the Wave ratio ([2]; IAA model, ERG wave A, Normal = 1.00) of the same compound?
A: The Wave ratio was 0.38.

Q: What about the “Drug efficacy (%)” value ([2]; IAA model, ERG, Normal = 100, Veh. = 0) of the same compound?
A: Its value is 18%.

Q: And the solubility in water [3]?
A: The solubility in water was “well dissolved in water”.

Q: What about the “response compared to normal (100%)” value ([4]; FIG. 11, listed as 3-HC) of the same compound?
A: Its value is 66.9%.

Q: What about the “response compared to normal (100%)” value ([4]; FIG. 11, listed as Comparative Example 3-HC) of the same compound?
A: The value was 66.9%.

Q: What about the Wave ratio ([4]; SI model, ERG wave A after one week, eye drops 100 μl twice a day, Comparative Example 3 oral 10 mg/rabbit once a day, Normal = 1.00) of the same compound?
A: Its Wave ratio is 0.67.

Q: What about the “Drug efficacy (%)” value ([4]; SI model, Normal = 100, Veh. = 0) of the same compound?
A: Its value is 31%.

Q: What about the “Drug efficacy (%)” value ([4]; SI model, Normal = 100, Veh. = 0, listed as Comparative Example 3 (HC)) of the same compound?
A: The value was 31%.

Q: And the “Drug efficacy (%)” value ([4]; SI model, Normal = 100, Veh. = 0, listed as Comparative Example 3-HC)?
A: Its value is 31%.
